In series [1] the target is Muscarinic acetylcholine receptor M3 (Homo sapiens) (UniProt P20309). The experiment in a line: Inhibition of human recombinant M3 receptor at 10 uM by radioligand binding assay.
Series [2] concerns the target Nociceptin receptor (Homo sapiens) (UniProt P41146). The experiment in a line: Inhibition of human recombinant NOP receptor at 10 uM by radioligand binding assay.
The test system of series [3] is Neuropeptide Y receptor type 1. The series can be described thus: Inhibition of human recombinant Y1 receptor at 10 uM by radioligand binding assay.
Series [4] has as its target Sodium-dependent dopamine transporter (Homo sapiens) (UniProt Q01959). The experiment in a line: Inhibition of human recombinant DAT at 10 uM by radioligand binding assay.
Series [5] addresses Voltage-gated L-type calcium channel (Homo sapiens, UniProt Q13936+Q13698+Q01668+O60840). The experiment in a line: Inhibition of human recombinant L-type Ca2+ channel at 10 uM by radioligand binding assay.
For series [6], the target named is T1, 5-hydroxytryptamine receptor 1A (Homo sapiens) (UniProt P08908).
T1 sequence (whole entry): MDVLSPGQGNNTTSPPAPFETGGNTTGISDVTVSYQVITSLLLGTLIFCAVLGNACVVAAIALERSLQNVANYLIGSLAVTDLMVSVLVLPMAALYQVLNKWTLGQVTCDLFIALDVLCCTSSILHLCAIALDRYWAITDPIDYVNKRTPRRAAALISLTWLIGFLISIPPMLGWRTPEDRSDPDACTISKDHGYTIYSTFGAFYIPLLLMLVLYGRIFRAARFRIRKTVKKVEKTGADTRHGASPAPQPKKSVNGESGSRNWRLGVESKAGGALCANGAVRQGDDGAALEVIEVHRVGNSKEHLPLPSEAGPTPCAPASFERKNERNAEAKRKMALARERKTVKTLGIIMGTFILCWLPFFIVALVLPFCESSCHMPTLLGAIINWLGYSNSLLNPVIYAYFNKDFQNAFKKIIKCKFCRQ
The series can be described thus: Inhibition of human recombinant 5HT1A receptor at 10 uM by radioligand binding assay.

Series [7] addresses Adenosine receptor A2a (Homo sapiens) (UniProt P29274). The experiment in a line: Inhibition of human recombinant A2a receptor at 10 uM by radioligand binding assay.
Series [8] is filed under the species Homo sapiens. The series can be described thus: Inhibition of human recombinant GABA receptor at 10 uM by radioligand binding assay.
For series [9], the target named is T2, 5-hydroxytryptamine receptor 3A (Homo sapiens) (UniProt P46098).
T2 sequence (whole entry): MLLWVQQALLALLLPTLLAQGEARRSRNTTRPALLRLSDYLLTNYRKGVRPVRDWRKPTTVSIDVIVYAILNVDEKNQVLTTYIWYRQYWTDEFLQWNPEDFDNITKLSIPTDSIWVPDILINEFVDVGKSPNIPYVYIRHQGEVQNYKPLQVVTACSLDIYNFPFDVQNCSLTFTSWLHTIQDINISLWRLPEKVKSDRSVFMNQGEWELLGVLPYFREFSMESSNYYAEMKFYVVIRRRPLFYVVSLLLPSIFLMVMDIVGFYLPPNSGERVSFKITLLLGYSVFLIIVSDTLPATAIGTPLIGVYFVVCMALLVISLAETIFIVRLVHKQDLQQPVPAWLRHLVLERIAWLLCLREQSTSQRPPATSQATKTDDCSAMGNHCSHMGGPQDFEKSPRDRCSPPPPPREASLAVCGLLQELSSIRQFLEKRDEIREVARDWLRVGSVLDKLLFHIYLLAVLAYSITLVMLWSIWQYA
The experiment in a line: Inhibition of human recombinant 5HT3 receptor at 10 uM by radioligand binding assay.

The species entered for series [10] is Homo sapiens. The series can be described thus: Inhibition of human recombinant BZD receptor at 10 uM by radioligand binding assay.
For series [11], the target named is T3, Adenosine receptor A3 (Homo sapiens) (UniProt P0DMS8).
T3 sequence (whole entry): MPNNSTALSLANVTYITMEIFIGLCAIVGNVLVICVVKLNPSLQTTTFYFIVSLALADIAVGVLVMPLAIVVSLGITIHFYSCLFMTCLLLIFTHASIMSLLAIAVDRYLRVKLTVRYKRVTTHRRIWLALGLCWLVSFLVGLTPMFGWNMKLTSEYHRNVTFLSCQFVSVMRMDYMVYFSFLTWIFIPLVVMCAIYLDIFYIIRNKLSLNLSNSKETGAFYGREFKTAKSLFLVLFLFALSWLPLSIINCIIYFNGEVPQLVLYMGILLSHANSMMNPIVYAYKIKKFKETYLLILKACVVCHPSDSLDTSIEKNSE
The experiment in a line: Inhibition of human recombinant A3 receptor at 10 uM by radioligand binding assay.

The target of series [12] is 5-hydroxytryptamine receptor 6 (Homo sapiens) (UniProt P50406). The series can be described thus: Inhibition of human recombinant 5HT6 receptor at 10 uM by radioligand binding assay.
5-hydroxytryptamine receptor 6 (Homo sapiens), sequence (P50406 whole entry): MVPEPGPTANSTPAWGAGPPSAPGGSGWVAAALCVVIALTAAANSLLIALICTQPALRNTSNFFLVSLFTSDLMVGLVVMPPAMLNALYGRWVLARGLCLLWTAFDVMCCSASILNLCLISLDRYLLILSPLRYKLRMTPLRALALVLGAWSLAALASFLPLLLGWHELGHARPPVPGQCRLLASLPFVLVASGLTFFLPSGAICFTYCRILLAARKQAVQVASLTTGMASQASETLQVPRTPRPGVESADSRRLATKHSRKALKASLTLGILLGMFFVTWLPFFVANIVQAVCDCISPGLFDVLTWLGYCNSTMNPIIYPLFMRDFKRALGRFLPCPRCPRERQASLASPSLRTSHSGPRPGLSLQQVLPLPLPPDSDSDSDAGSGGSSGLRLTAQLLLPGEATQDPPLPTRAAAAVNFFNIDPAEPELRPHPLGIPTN
For series [13], the species on record is Homo sapiens. The series can be described thus: Inhibition of human recombinant sodium channel at 10 uM by radioligand binding assay.
The target of series [14] is 5-hydroxytryptamine receptor 5A (Homo sapiens) (UniProt P47898). The series can be described thus: Inhibition of human recombinant 5HT5A receptor at 10 uM by radioligand binding assay.
5-hydroxytryptamine receptor 5A (Homo sapiens), sequence (P47898 whole entry): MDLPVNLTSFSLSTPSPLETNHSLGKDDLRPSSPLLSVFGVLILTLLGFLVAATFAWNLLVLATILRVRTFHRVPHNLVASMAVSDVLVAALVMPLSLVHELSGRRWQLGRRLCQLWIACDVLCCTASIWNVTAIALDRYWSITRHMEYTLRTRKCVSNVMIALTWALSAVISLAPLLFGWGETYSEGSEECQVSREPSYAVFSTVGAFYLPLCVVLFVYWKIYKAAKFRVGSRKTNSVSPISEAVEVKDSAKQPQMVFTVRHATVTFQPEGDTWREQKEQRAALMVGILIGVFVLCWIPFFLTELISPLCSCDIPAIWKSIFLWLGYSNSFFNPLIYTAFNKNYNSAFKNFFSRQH
Series [15] deals with T4, B2 bradykinin receptor (Homo sapiens) (UniProt P30411).
T4 sequence (whole entry): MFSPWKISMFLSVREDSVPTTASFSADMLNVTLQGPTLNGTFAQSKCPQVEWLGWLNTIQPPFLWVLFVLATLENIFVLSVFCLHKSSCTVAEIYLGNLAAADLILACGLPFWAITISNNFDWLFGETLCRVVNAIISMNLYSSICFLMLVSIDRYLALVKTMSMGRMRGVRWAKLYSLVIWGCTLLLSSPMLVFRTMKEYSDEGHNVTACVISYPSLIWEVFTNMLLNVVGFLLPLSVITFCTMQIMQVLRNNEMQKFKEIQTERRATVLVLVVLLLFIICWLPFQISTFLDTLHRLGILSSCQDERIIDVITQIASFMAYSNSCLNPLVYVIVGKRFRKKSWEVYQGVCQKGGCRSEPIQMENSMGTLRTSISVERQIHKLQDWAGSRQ
The series can be described thus: Inhibition of human recombinant B2 bradykinin receptor at 10 uM by radioligand binding assay.

Series [16] has as its target Neurotensin receptor type 1 (Homo sapiens) (UniProt P30989). The series can be described thus: Inhibition of human recombinant NTS1 receptor at 10 uM by radioligand binding assay.
Series [17] has as its target T5, Type-1 angiotensin II receptor (Homo sapiens) (UniProt P30556).
T5 sequence (whole entry): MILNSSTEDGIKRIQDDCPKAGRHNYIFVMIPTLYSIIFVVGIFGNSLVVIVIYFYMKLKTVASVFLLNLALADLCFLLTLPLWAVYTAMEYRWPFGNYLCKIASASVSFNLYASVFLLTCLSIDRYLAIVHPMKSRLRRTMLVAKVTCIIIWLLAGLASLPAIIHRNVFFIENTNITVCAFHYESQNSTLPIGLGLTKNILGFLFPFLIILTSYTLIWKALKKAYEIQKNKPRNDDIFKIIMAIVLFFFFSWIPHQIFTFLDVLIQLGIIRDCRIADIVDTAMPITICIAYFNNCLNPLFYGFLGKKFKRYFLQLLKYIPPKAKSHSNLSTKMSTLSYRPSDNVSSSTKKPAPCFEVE
The series can be described thus: Inhibition of human recombinant AT1 receptor at 10 uM by radioligand binding assay.

Activity calls are given as the source filed them. No cut-off for these calls is given here.

Nociceptin receptor (Homo sapiens), sequence (P41146 whole entry): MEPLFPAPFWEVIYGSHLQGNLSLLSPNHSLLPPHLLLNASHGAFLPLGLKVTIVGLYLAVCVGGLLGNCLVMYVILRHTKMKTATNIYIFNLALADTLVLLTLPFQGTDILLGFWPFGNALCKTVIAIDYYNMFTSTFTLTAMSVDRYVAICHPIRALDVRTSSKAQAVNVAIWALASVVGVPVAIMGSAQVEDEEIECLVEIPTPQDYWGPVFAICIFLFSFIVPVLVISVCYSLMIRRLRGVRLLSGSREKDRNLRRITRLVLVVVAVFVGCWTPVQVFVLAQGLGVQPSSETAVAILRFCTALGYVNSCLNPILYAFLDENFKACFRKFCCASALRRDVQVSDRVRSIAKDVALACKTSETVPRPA
Neurotensin receptor type 1 (Homo sapiens), sequence (P30989 whole entry): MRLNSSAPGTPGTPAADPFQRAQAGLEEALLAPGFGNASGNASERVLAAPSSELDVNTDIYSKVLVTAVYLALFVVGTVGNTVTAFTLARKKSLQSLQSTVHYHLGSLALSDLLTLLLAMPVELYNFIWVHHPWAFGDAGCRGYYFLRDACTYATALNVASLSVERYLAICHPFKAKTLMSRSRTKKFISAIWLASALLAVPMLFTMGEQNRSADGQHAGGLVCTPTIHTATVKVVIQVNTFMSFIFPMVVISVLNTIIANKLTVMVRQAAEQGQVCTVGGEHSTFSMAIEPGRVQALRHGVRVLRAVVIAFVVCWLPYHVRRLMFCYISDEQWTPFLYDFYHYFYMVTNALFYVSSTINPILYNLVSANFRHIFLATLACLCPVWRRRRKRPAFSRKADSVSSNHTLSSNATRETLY
Muscarinic acetylcholine receptor M3 (Homo sapiens), sequence (P20309 whole entry, looked up): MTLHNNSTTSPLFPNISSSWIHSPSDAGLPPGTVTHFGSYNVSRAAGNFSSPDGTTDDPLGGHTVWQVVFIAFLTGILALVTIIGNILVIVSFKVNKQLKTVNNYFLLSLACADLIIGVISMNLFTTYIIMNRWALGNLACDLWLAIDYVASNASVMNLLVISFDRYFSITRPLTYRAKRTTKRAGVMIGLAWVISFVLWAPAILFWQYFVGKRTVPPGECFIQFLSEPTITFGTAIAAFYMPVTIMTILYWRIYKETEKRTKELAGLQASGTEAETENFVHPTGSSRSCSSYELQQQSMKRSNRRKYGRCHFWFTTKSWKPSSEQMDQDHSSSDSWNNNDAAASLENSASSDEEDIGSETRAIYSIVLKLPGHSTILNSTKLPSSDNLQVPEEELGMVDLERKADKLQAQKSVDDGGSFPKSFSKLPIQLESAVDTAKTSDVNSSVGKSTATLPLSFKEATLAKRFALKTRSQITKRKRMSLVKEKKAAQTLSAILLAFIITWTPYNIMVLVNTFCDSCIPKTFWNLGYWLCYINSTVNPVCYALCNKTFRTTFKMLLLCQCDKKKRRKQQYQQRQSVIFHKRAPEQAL
Adenosine receptor A2a (Homo sapiens), sequence (P29274 whole entry): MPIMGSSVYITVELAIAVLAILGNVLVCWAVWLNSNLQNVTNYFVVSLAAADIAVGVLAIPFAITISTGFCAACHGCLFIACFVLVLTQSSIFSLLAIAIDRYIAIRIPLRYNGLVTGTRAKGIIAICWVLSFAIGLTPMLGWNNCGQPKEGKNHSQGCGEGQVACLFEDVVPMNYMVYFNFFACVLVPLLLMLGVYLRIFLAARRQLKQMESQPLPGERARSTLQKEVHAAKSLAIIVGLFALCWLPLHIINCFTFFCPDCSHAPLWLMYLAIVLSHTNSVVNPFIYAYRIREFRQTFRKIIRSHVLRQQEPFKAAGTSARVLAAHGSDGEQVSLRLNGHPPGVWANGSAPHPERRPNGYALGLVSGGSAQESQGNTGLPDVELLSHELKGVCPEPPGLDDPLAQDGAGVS
Sodium-dependent dopamine transporter (Homo sapiens), sequence (Q01959 whole entry): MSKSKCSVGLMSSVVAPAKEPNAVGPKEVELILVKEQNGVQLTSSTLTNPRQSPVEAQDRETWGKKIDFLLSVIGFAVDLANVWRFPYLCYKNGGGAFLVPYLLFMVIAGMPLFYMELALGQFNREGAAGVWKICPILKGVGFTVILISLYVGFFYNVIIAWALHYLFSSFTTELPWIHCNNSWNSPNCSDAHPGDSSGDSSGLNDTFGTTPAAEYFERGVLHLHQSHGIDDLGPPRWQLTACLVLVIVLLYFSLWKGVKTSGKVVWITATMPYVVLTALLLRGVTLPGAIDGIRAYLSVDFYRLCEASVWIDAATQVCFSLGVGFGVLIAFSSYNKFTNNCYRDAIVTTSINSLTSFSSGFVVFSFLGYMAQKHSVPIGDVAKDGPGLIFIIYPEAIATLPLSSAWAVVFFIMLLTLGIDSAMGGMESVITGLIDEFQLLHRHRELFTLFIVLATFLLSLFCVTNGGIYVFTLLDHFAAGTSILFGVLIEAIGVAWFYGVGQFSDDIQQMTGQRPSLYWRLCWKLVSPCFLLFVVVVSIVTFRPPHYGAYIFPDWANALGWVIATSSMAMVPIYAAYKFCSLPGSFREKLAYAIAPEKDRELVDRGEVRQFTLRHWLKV

Regarding `Cc1cc(C(N)=O)ccc1-c1c(-c2ccc(-n3ccnc3)cc2)ccn1CCC(=O)O`, the inhibition result in series [1], in series [2], in [3], in series [4], in [6] and in series [7] was “inactive” each time. Besides, the inhibition result (in the series filed under Homo sapiens [8]; in series [9]; in the series listed under Homo sapiens [10]; in [11]; in series [12]; in the series filed under Homo sapiens [13]) was “inactive” in each case. For the same compound, the inhibition entry in series [14], in [15], in series [16] and in series [17] was “inactive” each time. For the same compound, in series [5], the “inhibition (INH)” value is on record as “Not Active”.

As to `COc1ccc(-c2ccn(-c3ccc(C(=O)O)c(O)c3)c2-c2ccc(C(N)=O)cc2C)cc1`, the inhibition result in series [1], in series [2], in [3], in series [4], in [6] and in [7] was “Active” throughout. The inhibition result (in the series listed under Homo sapiens [8]; in [9]; in the series filed under Homo sapiens [10]; in [11]; in series [12]; in the series listed under Homo sapiens [13]) was “Active” in each case. In addition, the inhibition entry in series [14], in series [15], in series [16] and in [17] was “Active” throughout. The “inhibition (INH)” value in series [5] was “Active”.

On to `Cc1cc(C(N)=O)ccc1-c1c(CCC(=O)O)ccn1-c1ccc(-n2ccnc2)cc1`, for which the inhibition entry in series [1], in [2], in [3], in series [4], in [6] and in [7] was “inactive” in each case. For the same compound, the inhibition result (in the series filed under Homo sapiens [8]; in series [9]; in the series filed under Homo sapiens [10]; in [11]; in series [12]; in the series listed under Homo sapiens [13]) was “inactive” in each case. Further, the inhibition result in series [14], in [15], in series [16] and in series [17] was “inactive” in each case. For the same compound, the “inhibition (INH)” value in series [5] is recorded as “Not Active”.

For the compound `Cc1cc(C(N)=O)ccc1-n1c(CCC(=O)O)ccc1-c1ccc(-n2ccnc2)cc1` [N6022], the inhibition entry (in series [1]; in series [2]; in [4]; in series [6]; in [7]; in the series listed under Homo sapiens [8]) was “inactive” throughout. Besides, the inhibition result (in [9]; in the series listed under Homo sapiens [10]; in series [11]; in series [12]; in the series listed under Homo sapiens [13]; in series [14]) was “inactive” each time. The inhibition result in series [15], in series [16] and in series [17] was “inactive” each time. For the same compound, the “inhibition (INH)” value in series [5] is “Not Active”.

On to `COc1ccc(-c2ccn(-c3ccc(O)c([N+](=O)[O-])c3)c2-c2ccc(C(N)=O)cc2C)cc1`, for which the inhibition entry in series [1], in series [2], in series [3], in series [4], in series [6] and in series [7] was “Active” in each case. Also, the inhibition entry (in the series filed under Homo sapiens [8]; in [9]; in the series filed under Homo sapiens [10]; in series [11]; in series [12]; in the series listed under Homo sapiens [13]) was “Active” throughout. Further, the inhibition entry in [14], in series [15], in series [16] and in series [17] was “Active” in each case. For the same compound, the “inhibition (INH)” value in [5] was “Active”.

Values taken from ChEMBL document CHEMBL1781986, “Structure-activity relationships of pyrrole based S-nitrosoglutathione reductase inhibitors: pyrrole regioisomers and propionic acid replacement” (Bioorg Med Chem Lett, 2011).
